Reference: US20260317333A1, “Heteroaryl Compounds as Ligand Directed Degraders of IRAK4” (Celgene Corporation, priority 2023, published 2026)
Counter-ions that a name gives are not always drawn.

Target: T1, IRAK4 (Homo sapiens, UniProt Q9NWZ3)
T1 sequence (Q9NWZ3 1-460): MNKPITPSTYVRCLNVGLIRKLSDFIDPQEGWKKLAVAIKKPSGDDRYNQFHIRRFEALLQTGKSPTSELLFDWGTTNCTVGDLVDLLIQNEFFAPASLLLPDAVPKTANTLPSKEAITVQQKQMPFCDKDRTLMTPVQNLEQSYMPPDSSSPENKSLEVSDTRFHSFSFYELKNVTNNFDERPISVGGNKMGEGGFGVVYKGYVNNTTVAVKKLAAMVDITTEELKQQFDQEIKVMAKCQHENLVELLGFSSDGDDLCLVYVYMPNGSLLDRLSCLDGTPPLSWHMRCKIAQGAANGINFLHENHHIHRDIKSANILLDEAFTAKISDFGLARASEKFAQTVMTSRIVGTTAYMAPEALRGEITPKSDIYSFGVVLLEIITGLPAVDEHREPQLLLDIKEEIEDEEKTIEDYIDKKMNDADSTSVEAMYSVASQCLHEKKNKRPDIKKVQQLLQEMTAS
Test: ALE THP1 HTRF (IRAK4 degradation in THP1 cells, HTRF with anti-IRAK4 antibodies)
Format: cell-based
Parameters: THP1 Homogeneous Time Resolved Fluorescence (ALE THP1 HTRF) Procedure; endogenous in cells; host or cells: THP1
Settings: THP1 cell lysate; for DC50: read-out: ALE THP1 HTRF EC50
Description: Cell culture media was prepared in a tissue culture hood in a sterile environment by adding 10% FBS and 1% Penicillin Streptomycin to 500 mL no phenol red RPMI 1640 media. The media was filtered through a Nalgene Bottle Top Filter and stored at 4° C.
For Homogenous Time Resolved Fluorescence (HTRF) assays, a Cisbio HTRF kit was used, which included: Lysis Buffer #1 4×, Blocking Reagent #3 100×, 20× Antibody 1 (Anti-IRAK4 d2), 20× Antibody 2 (Anti-IRAK4 k), and Detection Buffer.
4× Lysis Buffer was stored at 4° C. For use as 1× Lysis buffer, the 4× solution was diluted with de-ionized water (distilled water, Gibco Cat. #15230279) and 100× Blocking Reagent in a 1:3:0.04 volume ratio.
20× Antibody Solution aliquots were stored at −80° C. and the Detection Buffer was stored at 4° C. For use as a 1× Antibody Solution, the 20× Antibody Solution aliquot was diluted with Detection Buffer in a 1:19 volume ratio.
Cells were lysed at room temperature for 45 min with shaking. A BCA protein assay was performed and normalization was conducted to the desired total protein concentration with 1× lysis buffer. Next, 1× Antibody Solutions were prepared by adding 380 μL Detection Buffer to 20 μL 20× Antibody Solution aliquots and mixing well. 1× Antibody Solutions were combined 1:1 and briefly vortexed. For control wells, 20 μL 1× anti IRAK4-k Antibody Solution was saved. The 384-well plate (ProxiPlate-384 Plus, Perkin Elmer Cat. #6008289) was loaded by adding 4 μL of the mixed Antibody Solution to empty wells using a single channel repeater. Using a multi-channel repeater, 16 μL lysate was added per well, and any bubbles that were formed were popped with 20 μL pipette tips and Kimwipe edges. In column 10, triplicates of each control were prepared. In wells A10, B10, and C10, buffer control was prepared by adding 16 μL Lysis Buffer and 4 μL Detection Buffer. In wells D10, E10, and F10, cryptate control was prepared by adding 16 μL Lysis Buffer, 2 μL Detection Buffer, and 2 μL 1× anti-IRAK4-k Antibody Solution. In wells G10, H10, and I10, a negative control was prepared by adding 16 μL Lysis Buffer and 4 μL mixed Antibody Solution. The plate was sealed with a clear seal and covered with an aluminum lid. The plate was spun down at 800 g for 5 min and incubated in the dark at room temperature overnight. The next day, the plate was spun down at 800 g for 5 min. The samples were analyzed by a plate reader (Envision, PerkinElmer) using the Desnor 384 HTRF program.

Row | Compound | ALE THP1 HTRF YMIN [%] | DC50 [µM]
1 | N[C@@H]1C[C@@H](F)CN(c2ccn3ncc(C(=O)Nc4cn([C@H]5CC[C@H](CN6CCN(C(=O)c7ccc(C8CCC(=O)NC8=O)cc7)CC6)CC5)nc4C(F)(F)F)c3n2)C1 (some centres unmarked) [Compound P-4] | 32 | > 10
2 | N[C@@H]1C[C@@H](F)CN(c2ccn3ncc(C(=O)Nc4cn([C@H]5CC[C@H](CN6CCC(Nc7ccc(C8CCC(=O)NC8=O)cc7)CC6)CC5)nc4C(F)(F)F)c3n2)C1 (stereo partly drawn) [Compound P-5, N-[1-[4-[[4-[4-(2,6-dioxo-3-piperidyl)anilino]-1-piperidyl]methyl]cyclohexyl]-3-(trifluoromethyl)pyrazol-4-yl]-5-[(3R,5R)-3-amino-5-fluoro-1-piperidyl]pyrazolo[1,5-a]pyrimidine-3-carboxamide hydrochloride] | 45 | 0.057
3 | N[C@@H]1C[C@@H](F)CN(c2ccn3ncc(C(=O)Nc4cn([C@H]5CC[C@H](C(=O)N6CCN(Cc7ccc(C8CCC(=O)NC8=O)cc7)CC6)CC5)nc4C(F)(F)F)c3n2)C1 (some centres unmarked) [Compound P-12] | 57 | 6.86
4 | N[C@@H]1C[C@@H](F)CN(c2ccn3ncc(C(=O)Nc4cn([C@H]5CC[C@H](CN6CCN(Cc7ccc(C8CCC(=O)NC8=O)cc7)CC6)CC5)nc4C(F)(F)F)c3n2)C1 (some centres unmarked) [Compound P-13] | 18 | 0.405
5 | N[C@@H]1C[C@@H](F)CN(c2ccn3ncc(C(=O)Nc4cn([C@H]5CC[C@H](C(=O)NC6CCN(c7ccc(C8CCC(=O)NC8=O)cc7)CC6)CC5)nc4C(F)F)c3n2)C1 (stereo partly drawn) [Compound P-15, 5-[(3R,5R)-3-amino-5-fluoro-1-piperidyl]-N-[3-(difluoromethyl)-1-[4-[[1-[4-(2,6-dioxo-3-piperidyl)phenyl]-4-piperidyl]carbamoyl]cyclohexyl]pyrazol-4-yl]pyrazolo[1,5-a]pyrimidine-3-carboxamide hydrochloride] | 11 | 0.004
6 | N[C@@H]1C[C@@H](F)CN(c2ccn3ncc(C(=O)Nc4cn([C@H]5CC[C@H](C(=O)N6CCC7(CC6)CN(c6cccc(C8CCC(=O)NC8=O)c6)C7)CC5)nc4C(F)F)c3n2)C1 (some centres unmarked) [Compound P-17] | 73 | > 10
7 | N[C@@H]1C[C@@H](F)CN(c2ccn3ncc(C(=O)Nc4cn([C@H]5CC[C@H](CCN6CCN(c7ccc(C8CCC(=O)NC8=O)cc7)CC6)CC5)nc4C(F)F)c3n2)C1 (stereo partly drawn) [Compound P-21, N-[3-(Difluoromethyl)-1-[4-[2-[4-[4-(2,6-dioxo-3-piperidyl)phenyl]piperazin-1-ylethyl]cyclohexyl]pyrazol-4-yl]-5-[(3R,5R)-3-amino-5-fluoro-1-piperidyl]pyrazolo[1,5-a]pyrimidine-3-carboxamide formic acid salt] | 15 | 0.01
8 | N[C@@H]1C[C@@H](F)CN(c2ccn3ncc(C(=O)Nc4cn([C@H]5CC[C@H](CCN6CCC7(CC6)CN(c6ccc(C8CCC(=O)NC8=O)cc6)C7)CC5)nc4C(F)F)c3n2)C1 (stereo partly drawn) [Compound P-23, N-[3-(Difluoromethyl)-1-[4-[2-[2-[4-(2,6-dioxo-3-piperidyl)phenyl]-2,7-diazaspiro[3.5]nonan-7-yl]ethyl]cyclohexyl]pyrazol-4-yl]-5-[(3R,5R)-3-amino-5-fluoro-1-piperidyl]pyrazolo[1,5-a]pyrimidine-3-carboxamide formic acid salt] | 15 | 0.011
9 | N[C@@H]1C[C@@H](F)CN(c2ccn3ncc(C(=O)Nc4cn([C@H]5CC[C@H](C(=O)NC6CCN(c7ccc(C8CCC(=O)NC8=O)nc7)CC6)CC5)nc4C(F)F)c3n2)C1 (some centres unmarked) [Compound P-25] | 15 | 0.006

Other lines, results leading:

Row | ALE THP1 HTRF YMIN [%] | DC50 [µM] | Compound
10 | >95 | > 10 | N[C@@H]1C[C@@H](F)CN(c2ccn3ncc(C(=O)Nc4cn([C@H]5CC[C@H](CCN6CCC[C@H](c7ccc(C8CCC(=O)NC8=O)cc7)C6)CC5)nc4C(F)F)c3n2)C1 (stereo in doubt) [Compound P-29]
11 | 15 | 0.017 | N[C@@H]1C[C@@H](F)CN(c2ccn3ncc(C(=O)Nc4cn([C@H]5CC[C@H](CN6CCC(CNc7cccc(C8CCC(=O)NC8=O)c7)CC6)CC5)nc4C(F)(F)F)c3n2)C1 (stereo partly drawn) [Compound P-6, 5-((3R,5R)-3-amino-5-fluoropiperidin-1-yl)-N-(1-((1r,4r)-4-((4-(((3-(2,6-dioxopiperidin-3-yl)phenyl)amino)methyl)piperidin-1-yl)methyl)cyclohexyl)-3-(trifluoromethyl)-1H-pyrazol-4-yl) pyrazolo[1,5-a]pyrimidine-3-carboxamide hydrochloride]
12 | >95 | > 10 | N[C@@H]1C[C@@H](F)CN(c2ccn3ncc(C(=O)Nc4cn([C@H]5CC[C@H](CN6CCC(Nc7cccc(C8CCC(=O)NC8=O)c7)CC6)CC5)nc4C(F)(F)F)c3n2)C1 (some centres unmarked) [Compound P-8]
13 | 64 | > 10 | N[C@@H]1C[C@@H](F)CN(c2ccn3ncc(C(=O)Nc4cn([C@H]5CC[C@H](C(=O)NC6CCN(c7cccc(C8CCC(=O)NC8=O)c7)CC6)CC5)nc4C(F)F)c3n2)C1 (some centres unmarked) [Compound P-14]
14 | 18 | 0.028 | CN(CC1CCN(C(=O)[C@H]2CC[C@H](n3cc(NC(=O)c4cnn5ccc(N6C[C@H](N)C[C@@H](F)C6)nc45)c(C(F)F)n3)CC2)CC1)c1cccc(C2CCC(=O)NC2=O)c1 (stereo partly drawn) [Compound P-16, 5-((3R,5R)-3-amino-5-fluoropiperidin-1-yl)-N-(3-(difluoromethyl)-1-((1r,4r)-4-(4-(((3-(2,6-dioxopiperidin-3-yl)phenyl)(methyl)amino)methyl)piperidine-1-carbonyl)cyclohexyl)-1H-pyrazol-4-yl)pyrazolo[1,5-a]pyrimidine-3-carboxamide hydrochloride]
15 | 13 | 9.18 | N[C@@H]1C[C@@H](F)CN(c2ccn3ncc(C(=O)Nc4cn([C@H]5CC[C@H](CN6CCC7(CC6)CN(c6cccc(C8CCC(=O)NC8=O)c6)C7)CC5)nc4C(F)F)c3n2)C1 (some centres unmarked) [Compound P-18]
16 | 11 | 0.01 | CN(CC1CCN(C[C@H]2CC[C@H](n3cc(NC(=O)c4cnn5ccc(N6C[C@H](N)C[C@@H](F)C6)nc45)c(C(F)F)n3)CC2)CC1)c1cccc(C2CCC(=O)NC2=O)c1 (stereo partly drawn) [Compound P-19, N-[3-(Difluoromethyl)-1-[4-[4-[[3-(2,6-dioxo-3-piperidyl)-N-methyl-anilino]methyl]-1-piperidyl]methyl]cyclohexyl]pyrazol-4-yl]-5-[(3R,5R)-3-amino-5-fluoro-1-piperidyl]pyrazolo[1,5-a]pyrimidine-3-carboxamide dihydrochloride]
17 | 12 | 0.011 | N[C@@H]1C[C@@H](F)CN(c2ccn3ncc(C(=O)Nc4cn([C@H]5CC[C@H](CCN6CCC(c7ccc(C8CCC(=O)NC8=O)cc7)CC6)CC5)nc4C(F)F)c3n2)C1 (some centres unmarked) [Compound P-20]
18 | 43 | 3.01 | N[C@@H]1C[C@@H](F)CN(c2ccn3ncc(C(=O)Nc4cn([C@H]5CC[C@H](CCN6CCN(c7cccc(C8CCC(=O)NC8=O)c7)CC6)CC5)nc4C(F)F)c3n2)C1 (some centres unmarked) [Compound P-22]
19 | 12 | 0.012 | N[C@@H]1C[C@@H](F)CN(c2ccn3ncc(C(=O)Nc4cn([C@H]5CC[C@H](CCN6CCC(Nc7cccc(C8CCC(=O)NC8=O)c7)CC6)CC5)nc4C(F)F)c3n2)C1 (stereo partly drawn) [Compound P-24, 5-((3R,5R)-3-Amino-5-fluoropiperidin-1-yl)-N-(3-(difluoromethyl)-1-((1r,4r)-4-(2-(4-((3-(2,6-dioxopiperidin-3-yl)phenyl)amino)piperidin-1-yl)ethyl)cyclohexyl)-1H-pyrazol-4-yl) pyrazolo[1,5-a]pyrimidine-3-carboxamide dihydrochloride]
